From patent US8507464B2, “Phosphoramidate alkylator prodrugs” (Threshold Pharmaceuticals, Inc., priority 2005, dated 2013)
Where two headings read alike, the source gives them in different places.

Legend:
[1] = tested on: HT29; assay: Clonogenic assay, hypoxia vs normoxia (Table 1B); details: Homo sapiens, HT-29, read-out: HT29 C H (clonogenic IC90, hypoxia)
[2] = in vivo; details: CD-1, mouse, 50 mg/kg
[3] = tested on: human H460 cells; assay: Clonogenic survival assay, hypoxia vs normoxia (Table 1A); details: for IC90: Homo sapiens
[4] = Preliminary toxicity in mice (Example 56); assay type: in vivo
Text: It is recognized that efficacious molecules for treatment of human diseases including cancer may be toxic at doses near or sometime much greater than doses necessary to achieve beneficial effects. To determine appropriate dose and route of administering such a compound, it is necessary to understand its toxicity. Routinely, initial approaches to determining the toxic dose involve the use of rodents such as mice to provide preliminary data that might support the design of similar studies in larger animals and humans. Test compounds (Compounds 24, 25 and 36) were tested in mice as preliminary experiments for determining doses to be used in larger animals. […] These doses selected represent an approximation of doses that might be used in larger animals such as rats and dogs for the purpose of confirming that such toxicities exist and for predicting if renal function should be measured in humans.

[5] = target: CYP2C9 (Homo sapiens, UniProt P11712); assay: Cytochrome P450 inhibition; details: pH 7.4
Experimental: (§1) A control reaction with no inhibitor was also prepared. After a suitable incubation at 37° C., the reactions were terminated by the addition of […] of 10% formic acid in water ([…] of acetonitrile for 2C19). […] Each assay was performed in duplicate.

[6] = target: CYP2C19 (printed CYPC219) (Homo sapiens, UniProt P33261); assay: Cytochrome P450 inhibition; details: pH 7.4, probe (S)-mephenyloin
Experimental: as §1

[7] = tested on: HT29 xenograft; assay: HT-29 xenograft mouse model with CDDP (Example 52); assay type: in vivo; details: for % Inhibition vs Group 1 / % Inhibition vs Group 2: tumor volumes at day 25; for % Inhibition vs Group 1: vs vehicle group, regimen per table
Experimental: Female CB17/SCID mice (purchased from Charles River, Cambridge, Mass.), 7-8 weeks of age, were allowed to acclimatize for at least three days, and handled under pathogen-free conditions. Human colon carcinoma cell line HT29 was obtained from the American Type Culture Collection. The cell lines were cultured and harvested as described in Example 47 and inoculated at 3×10^6 cells/animal in the peritoneal subcutaneous space. When the tumors grew to an average volume of 100 mm^3 (day 8), each group of mice (ten per group) was administered, for three weeks, as tabulated in the table below: Compound 25 in saline, administration route—i.p., administrated 2 h before CDDP on the days the combination therapy is scheduled and CDDP (in saline, IV).
The body weight and tumor volume were determined as described in Example 47. Data are based on tumor volumes at day 25 when tumors in the vehicle group had reached sufficient size to require that the mice be sacrificed.

[8] = target: CYP3A4 (Homo sapiens, UniProt P08684); assay: in vitro
Experimental: as §1

[9] = target: CYP1A2 (Homo sapiens, UniProt P05177); assay: in vitro; details: pH 7.4, probe phenacetin
Experimental: as §1

[10] = target: CYP2D6 (Homo sapiens, UniProt P10635); assay: in vitro; details: pH 7.4, probe dextromethorphan
Experimental: as §1

[11] = tested on: ACHN cells; assay: Antiproliferation assay (Alamar Blue), anoxia vs air; details: Homo sapiens, 2 h
[12] = tested on: mouse (MLM) liver microsomal proteins; assay type: in vitro ADME; details: Table 1, first study, 5 μM
[13] = tested on: NCI-H460 cells; assay: Clonogenic assay - oxygen dependence; details: Homo sapiens
[14] = tested on: H460 cells; assay: Cell cycle distribution (flow cytometry); assay type: cell-based, human
[15] = Group 7, Compound 25 i.p. in combination with CDDP IV
[16] = Group 8, Compound 25 i.p. in combination with CDDP IV
[17] = Group 9, Compound 25 i.p. in combination with CDDP IV
[18] = Group 10, Compound 25 i.p. in combination with CDDP IV

Sequence of CYP3A4 (P08684 whole entry): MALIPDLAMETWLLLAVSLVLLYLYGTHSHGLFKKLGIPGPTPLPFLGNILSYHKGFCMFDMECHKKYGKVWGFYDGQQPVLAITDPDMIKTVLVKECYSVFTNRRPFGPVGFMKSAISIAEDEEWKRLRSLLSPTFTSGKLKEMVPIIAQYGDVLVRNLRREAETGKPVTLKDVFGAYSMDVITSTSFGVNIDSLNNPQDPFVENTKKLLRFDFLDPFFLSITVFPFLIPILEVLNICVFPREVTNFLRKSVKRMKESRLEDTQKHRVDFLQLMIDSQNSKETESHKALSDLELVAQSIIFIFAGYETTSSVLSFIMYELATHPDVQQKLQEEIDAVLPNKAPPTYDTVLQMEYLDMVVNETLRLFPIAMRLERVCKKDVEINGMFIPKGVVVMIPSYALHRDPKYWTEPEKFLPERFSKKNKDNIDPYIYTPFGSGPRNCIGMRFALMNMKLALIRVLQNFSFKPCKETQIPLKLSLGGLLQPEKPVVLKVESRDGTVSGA
Sequence of CYP2C9 (P11712 whole entry): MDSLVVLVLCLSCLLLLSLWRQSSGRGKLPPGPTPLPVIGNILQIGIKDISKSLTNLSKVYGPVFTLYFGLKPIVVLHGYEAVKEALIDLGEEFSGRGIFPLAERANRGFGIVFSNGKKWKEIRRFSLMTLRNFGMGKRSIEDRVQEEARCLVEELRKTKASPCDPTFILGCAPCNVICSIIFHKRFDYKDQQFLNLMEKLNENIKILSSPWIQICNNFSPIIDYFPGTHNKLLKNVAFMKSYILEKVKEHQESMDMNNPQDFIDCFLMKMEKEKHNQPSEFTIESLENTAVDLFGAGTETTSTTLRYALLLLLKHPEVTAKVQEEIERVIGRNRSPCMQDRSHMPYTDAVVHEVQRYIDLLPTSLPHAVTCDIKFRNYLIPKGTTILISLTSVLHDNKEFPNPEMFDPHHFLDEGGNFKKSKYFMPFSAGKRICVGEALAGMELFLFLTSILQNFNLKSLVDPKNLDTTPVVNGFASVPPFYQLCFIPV
Sequence of CYP1A2 (P05177 whole entry, species assumed): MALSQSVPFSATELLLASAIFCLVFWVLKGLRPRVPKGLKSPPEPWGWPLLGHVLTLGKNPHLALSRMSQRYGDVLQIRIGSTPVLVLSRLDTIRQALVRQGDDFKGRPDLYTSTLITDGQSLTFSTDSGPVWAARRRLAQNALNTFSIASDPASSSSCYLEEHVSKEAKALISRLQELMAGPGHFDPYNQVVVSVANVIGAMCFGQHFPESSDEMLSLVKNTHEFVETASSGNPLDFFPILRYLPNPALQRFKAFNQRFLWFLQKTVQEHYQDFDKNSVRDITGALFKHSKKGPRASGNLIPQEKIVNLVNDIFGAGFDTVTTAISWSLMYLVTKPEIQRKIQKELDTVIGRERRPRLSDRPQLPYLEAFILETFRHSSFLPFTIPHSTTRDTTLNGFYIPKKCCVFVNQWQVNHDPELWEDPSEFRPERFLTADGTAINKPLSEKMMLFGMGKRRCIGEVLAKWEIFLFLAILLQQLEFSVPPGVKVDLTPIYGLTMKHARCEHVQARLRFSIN
Sequence of CYP2D6 (P10635 whole entry): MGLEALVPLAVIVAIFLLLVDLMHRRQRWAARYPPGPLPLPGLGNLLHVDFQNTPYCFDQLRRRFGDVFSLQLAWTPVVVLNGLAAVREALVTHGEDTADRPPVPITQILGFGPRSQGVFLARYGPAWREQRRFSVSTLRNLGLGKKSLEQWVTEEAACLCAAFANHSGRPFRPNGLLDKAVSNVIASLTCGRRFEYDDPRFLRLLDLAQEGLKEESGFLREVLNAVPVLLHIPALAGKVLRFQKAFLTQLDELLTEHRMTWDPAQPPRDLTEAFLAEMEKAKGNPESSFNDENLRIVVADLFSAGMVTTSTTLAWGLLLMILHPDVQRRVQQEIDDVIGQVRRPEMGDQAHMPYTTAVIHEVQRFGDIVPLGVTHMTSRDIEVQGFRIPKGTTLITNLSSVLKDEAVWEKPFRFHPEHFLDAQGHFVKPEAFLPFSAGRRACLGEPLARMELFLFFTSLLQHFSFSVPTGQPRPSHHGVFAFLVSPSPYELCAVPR
Sequence of CYP2C19 (printed CYPC219) (P33261 whole entry): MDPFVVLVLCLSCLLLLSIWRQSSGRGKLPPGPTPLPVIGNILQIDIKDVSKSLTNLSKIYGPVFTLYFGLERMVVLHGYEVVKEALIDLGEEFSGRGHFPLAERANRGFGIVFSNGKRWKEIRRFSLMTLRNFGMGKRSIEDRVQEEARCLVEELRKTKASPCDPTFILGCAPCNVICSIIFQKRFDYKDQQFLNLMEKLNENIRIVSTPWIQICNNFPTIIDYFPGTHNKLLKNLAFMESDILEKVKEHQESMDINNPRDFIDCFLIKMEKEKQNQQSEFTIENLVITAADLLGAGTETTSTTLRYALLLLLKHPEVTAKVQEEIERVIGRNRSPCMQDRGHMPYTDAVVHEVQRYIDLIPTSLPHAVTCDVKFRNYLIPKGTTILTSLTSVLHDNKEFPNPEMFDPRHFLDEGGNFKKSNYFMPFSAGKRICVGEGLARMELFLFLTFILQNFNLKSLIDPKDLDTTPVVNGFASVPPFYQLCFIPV

## Cn1c(COP(=O)(NCCCl)NCCCl)cnc1[N+](=O)[O-] [Compound 36]
[1]
  IC90: 3 µM
[2]; ip
  AUC: 1440 µg·h/mL
  Cmax: 44000 ng/mL
  Tmax: 15 min
  half-life: 11 min
[2]; iv
  AUC: 646 µg·h/mL
  Cmax: 27700 ng/mL
  Tmax: 5 min
  half-life: 14.1 min
[3]; NCI-H460, read-out: Hypoxia C (clonogenic IC90)
  IC90: 0.2 µM
[3]; NCI-H460, read-out: Normoxia C (clonogenic IC90)
  IC90: > 100 µM
[3]; ratio of IC90 in normoxia and hypoxia
  HCR C: >500

## Cn1c(COP(=O)(NCCBr)NCCBr)cnc1[N+](=O)[O-] [Compound 25]
[4]
  white blood cells: Transient reductions in white blood cells
[4]; 300 mg/kg single dose
  toxicity at 300 mg/kg single dose: renal toxicities such as tubular necrosis and protein spillage into the urine
[4]; 100 and 200 mg/kg
  toxicity at lower doses (100 and 200 mg/kg): little toxicity
[5]
  IC50: ~10 µM
[6]
  IC50: > 50 µM
[7]; Group 3, Compound 25 in saline i.p.
  % Inhibition vs Group 1: 28.2%
[7]; Group 4, Compound 25 in saline i.p.
  % Inhibition vs Group 1: 30.1%
[7]; Group 5, Compound 25 in saline i.p.
  % Inhibition vs Group 1: 31.3%
[7]; Group 6, Compound 25 in saline i.p.
  % Inhibition vs Group 1: 48.1%
[7]; [15]
  % Inhibition vs Group 2: 30.8%
  % Inhibition vs Group 1: 50.7%
[7]; [16]
  % Inhibition vs Group 2: 27.5%
  % Inhibition vs Group 1: 44.2%
[7]; [17]
  % Inhibition vs Group 2: 21.5%
  % Inhibition vs Group 1: 36.2%
[7]; [18]
  % Inhibition vs Group 2: 33.2%
  % Inhibition vs Group 1: 51.8%
[7]; monotherapy 50 and 100 mg/kg/day, various regimens, saline
  tumor growth: inhibition of tumor growth
[7]; more so in combination groups, recovered
  body weight: modest body weight loss
[8]; pH 7.4, IC50 3A4 Midazolam, probe substrate midazolam
  IC50: > 50 µM
[8]; pH 7.4, IC50 3A4 Nifedipine, probe substrate nifedipine
  IC50: > 50 µM
[8]; pH 7.4, IC50 3A4 Testosterone, probe substrate testosterone
  IC50: > 50 µM
[9]
  IC50: > 50 µM
[10]
  IC50: > 50 µM
[11]; read-out: IC50 ACHN Air
  IC50: 62 µM
[11]; read-out: IC50 ACHN Anoxia
  IC50: 0.2 µM
[12]
  Metabolic stability (% at 30 min) MLM: 89%
[13]; NCI-H460, read-out: IC90 H460 0.1% O2
  IC90: 0.4 µM
[13]; NCI-H460, read-out: IC90 H460 0.6% O2
  IC90: 5 µM
[13]; NCI-H460, read-out: IC90 H460 Air
  IC90: 30 µM
[13]; NCI-H460, read-out: IC90 H460 N2
  IC90: 0.1 µM
[14]; 0.005 μM, Air
  Cell cycle G0/G1: 38
  Cell cycle G2/M: 42
  Cell cycle S: 18
[14]; 0.005 μM, Nitrogen
  Cell cycle G0/G1: 50
  Cell cycle G2/M: 38
  Cell cycle S: 12
[14]; 0.05 μM, Air
  Cell cycle G0/G1: 58
  Cell cycle G2/M: 28
  Cell cycle S: 11
[14]; 0.05 μM, Nitrogen
  Cell cycle G0/G1: 30
  Cell cycle G2/M: 59
  Cell cycle S: 7
[14]; 0.5 μM, Air
  Cell cycle G0/G1: 58
  Cell cycle G2/M: 28
  Cell cycle S: 11
[14]; 0.5 μM, Nitrogen
  Cell cycle G0/G1: 23
  Cell cycle G2/M: 40
  Cell cycle S: 31
[14]; 5 μM, Air
  Cell cycle G0/G1: 42
  Cell cycle G2/M: 59
  Cell cycle S: 6
[14]; 5 μM, Nitrogen
  Cell cycle G0/G1: 47
  Cell cycle G2/M: 17
  Cell cycle S: 15
[14]; 50 μM, Air
  Cell cycle G0/G1: 14
  Cell cycle G2/M: 65
  Cell cycle S: 19
[14]; 50 μM, Nitrogen
  Cell cycle G0/G1: 33
  Cell cycle G2/M: 11
  Cell cycle S: 14
